Biological target: FGFR2 (Homo sapiens, UniProt P21802)
Assay: FGFR2 Kinase Protocol - Condition 2 (Reaction Biology HotSpot radiometric kinase assay, no preincubation)
Assay type: biochemical
Conditions: poly[Glu:Tyr] (4:1) 0.2 mg/ml, ATP 100 microM, 2 hr room temperature
Outline: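 Ten-point, 3-fold compound dilutions were tested against wildtype or V564F FGFR2 with 100 µM ATP (33P-labelled), no preincubation, and 0.2 mg/ml poly[Glu:Tyr] (4:1) substrate. After 2 hr at room temperature, incorporation was read on P81 filter paper; IC50 fitted from activity remaining relative to vehicle.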

Chain of FGFR2 (P21802 22-821): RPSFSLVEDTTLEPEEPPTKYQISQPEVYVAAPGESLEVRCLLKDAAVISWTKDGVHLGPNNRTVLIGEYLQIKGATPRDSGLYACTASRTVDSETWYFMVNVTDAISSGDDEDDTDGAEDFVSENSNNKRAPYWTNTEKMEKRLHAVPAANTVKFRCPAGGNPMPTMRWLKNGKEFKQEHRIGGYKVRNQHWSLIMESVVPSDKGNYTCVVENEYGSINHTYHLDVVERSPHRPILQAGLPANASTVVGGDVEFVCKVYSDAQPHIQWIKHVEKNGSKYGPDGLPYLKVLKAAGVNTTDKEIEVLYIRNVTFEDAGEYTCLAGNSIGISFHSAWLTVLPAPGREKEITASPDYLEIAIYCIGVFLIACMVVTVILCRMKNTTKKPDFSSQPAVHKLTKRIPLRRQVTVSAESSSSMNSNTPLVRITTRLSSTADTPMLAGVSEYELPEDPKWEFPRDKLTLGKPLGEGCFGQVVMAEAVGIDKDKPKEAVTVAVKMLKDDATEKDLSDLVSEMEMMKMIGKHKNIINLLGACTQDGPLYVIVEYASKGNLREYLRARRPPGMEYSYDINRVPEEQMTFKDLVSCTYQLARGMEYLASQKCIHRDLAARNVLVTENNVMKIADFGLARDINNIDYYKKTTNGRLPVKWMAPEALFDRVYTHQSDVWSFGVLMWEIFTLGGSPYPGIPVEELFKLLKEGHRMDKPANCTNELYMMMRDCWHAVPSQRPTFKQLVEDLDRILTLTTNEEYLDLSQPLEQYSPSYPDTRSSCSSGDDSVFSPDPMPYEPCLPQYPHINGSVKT

Row | IC50 [nM] | IC50 (given as numeric bound) [nM] | SMILES
1 | ≤ 100 | – | C=CC(=O)N1C[C@@H](n2nc(C#Cc3cc4nccn4cc3F)c3c(N)ncnc32)C[C@@H]1COC [Example 124, 1-((2R,4S)-4-(4-Amino-3-((6-fluoroimidazo[1,2-a]pyridin-7-yl)ethynyl)-1H-pyrazolo[3,4-d]pyrimidin-1-yl)-2-(methoxymethyl)pyrrolidin-1-yl)prop-2-en-1-one]
2 | ≤ 100 | – | C=CC(=O)N1CC[C@H](n2nc(C#Cc3cc4ncn(C)c4cc3Cl)c3c(N)ncnc32)C1 [Example 147, 1-[(3S)-3-{4-Amino-3-[2-(6-chloro-1-methyl-1,3-benzodiazol-5-yl)ethynyl]pyrazolo[3,4-d]pyrimidin-1-yl}pyrrolidin-1-yl]prop-2-en-1-one]
3 | – | > 500 | C=CC(=O)N1C[C@H](c2nc(C#Cc3cc4ncn(C5CC5)c4cc3F)c3c(N)nccn23)C[C@@H]1COC [Example 202, 1-[(2R,4R)-4-{8-Amino-1-[2-(1-cyclopropyl-6-fluoro-1,3-benzodiazol-5-yl)ethynyl]imidazo[1,5-a]pyrazin-3-yl}-2-(methoxymethyl)pyrrolidin-1-yl]prop-2-en-1-one]
4 | ≤ 100 | – | C=CC(=O)N1C[C@@H](n2cc(C#Cc3cc4ncn(C5CC5)c4cc3F)c3c(N)ncnc32)C[C@@H]1COC [Example 110, 1-[(2R,4S)-4-[4-Amino-5-[2-(1-cyclopropyl-6-fluoro-1,3-benzodiazol-5-yl)ethynyl]pyrrolo[2,3-d]pyrimidin-7-yl]-2-(methoxymethyl)pyrrolidin-1-yl]prop-2-en-1-one]
5 | ≤ 100 | – | C=CC(=O)N1C[C@@H](n2cc(C#Cc3c(F)cc4c(ncn4C4CC4)c3F)c3c(N)ncnc32)C[C@@H]1COC [Example 75, 1-[(2R,4S)-4-[4-Amino-5-[2-(1-cyclopropyl-4,6-difluoro-1,3-benzodiazol-5-yl)ethynyl]pyrrolo[2,3-d]pyrimidin-7-yl]-2-(methoxymethyl)pyrrolidin-1-yl]prop-2-en-1-one]
6 | ≤ 100 | – | C=CC(=O)N1C[C@@H](n2cc(C#Cc3c(F)cc4c(ncn4C)c3F)c3c(N)ncnc32)C[C@@H]1COC [Example 61, 1-[(2R,4S)-4-[4-Amino-5-[2-(4,6-difluoro-1-methyl-1,3-benzodiazol-5-yl)ethynyl]pyrrolo[2,3-d]pyrimidin-7-yl]-2-(methoxymethyl)pyrrolidin-1-yl]prop-2-en-1-one]
7 | ≤ 100 | – | C=CC(=O)N1CC[C@H](n2nc(C#Cc3cc4ncn(CC)c4c(F)c3Cl)c3c(N)nccc32)C1 [Example 136, (S)-1-(3-(4-Amino-3-((6-chloro-1-ethyl-7-fluoro-1H-benzo[d]imidazol-5-yl)ethynyl)-1H-pyrazolo[4,3-c]pyridin-1-yl)pyrrolidin-1-yl)prop-2-en-1-one]
8 | ≤ 100 | – | C=CC(=O)N1CC[C@H](n2nc(C#Cc3cc4ncn(C)c4cc3Cl)c3c(N)nccc32)C1 [Example 137, (S)-1-(3-(4-Amino-3-((6-chloro-1-methyl-1H-benzo[d]imidazol-5-yl)ethynyl)-1H-pyrazolo[4,3-c]pyridin-1-yl)pyrrolidin-1-yl)prop-2-en-1-one]
9 | ≤ 100 | – | C=CC(=O)N1C[C@@H](n2nc(C#Cc3cc4nc(C)n(C)c4c(F)c3Cl)c3c(N)ncnc32)C[C@@H]1COC [Example 125, 1-[(2R,4S)-4-[4-Amino-3-[2-(6-chloro-7-fluoro-1,2-dimethyl-1,3-benzodiazol-5-yl)ethynyl]pyrazolo[3,4-d]pyrimidin-1-yl]-2-(methoxymethyl)pyrrolidin-1-yl]prop-2-en-1-one]
10 | ≤ 100 | – | C=CC(=O)N1C[C@@H](n2cc(C#Cc3c(F)cc4c(ncn4CC)c3F)c3c(N)ncnc32)C[C@@H]1COC [Example 87, 1-[(2R,4S)-4-[4-Amino-5-[2-(1-ethyl-4,6-difluoro-1,3-benzodiazol-5-yl)ethynyl]pyrrolo[2,3-d]pyrimidin-7-yl]-2-(methoxymethyl)pyrrolidin-1-yl]prop-2-en-1-one]
11 | ≤ 100 | – | C=CC(=O)N1C[C@@H](n2nc(C#Cc3cc4ncn(CC)c4cc3F)c3c(N)nccc32)C[C@@H]1COC(F)(F)F [Example 81, 1-[(2R,4S)-4-[4-Amino-3-[2-(1-ethyl-6-fluoro-1,3-benzodiazol-5-yl)ethynyl]pyrazolo[4,3-c]pyridin-1-yl]-2-[(trifluoromethoxy)methyl]pyrrolidin-1-yl]prop-2-en-1-one]
12 | ≤ 100 | – | C=CC(=O)N1C[C@@H](n2nc(C#Cc3c(Cl)cc4c(ncn4CC)c3F)c3c(N)nccc32)C[C@@H]1COC [Example 117, 1-[(2R,4S)-4-[4-Amino-3-[2-(6-chloro-1-ethyl-4-fluoro-1,3-benzodiazol-5-yl)ethynyl]pyrazolo[4,3-c]pyridin-1-yl]-2-(methoxymethyl)pyrrolidin-1-yl]prop-2-en-1-one]
13 | ≤ 100 | – | C=CC(=O)N1C[C@@H](n2nc(C#Cc3ccc4c(cnn4CC)c3)c3c(N)nccc32)C[C@@H]1COC [Example 37, 1-((2R,4S)-4-(4-amino-3-((1-ethyl-1H-indazol-5-yl)ethynyl)-1H-pyrazolo[4,3-c]pyridin-1-yl)-2-(methoxymethyl)pyrrolidin-1-yl)prop-2-en-1-one]
14 | ≤ 100 | – | C=CC(=O)N1C[C@@H](n2nc(C#Cc3cc4ncn(C)c4c(F)c3F)c3c(N)ncnc32)C[C@@H]1CC#N [Example 158, 2-[(2R,4S)-4-{4-Amino-3-[2-(6,7-difluoro-1-methyl-1,3-benzodiazol-5-yl)ethynyl]pyrazolo[3,4-d]pyrimidin-1-yl}-1-(prop-2-enoyl)pyrrolidin-2-yl]acetonitrile]
15 | ≤ 100 | – | C=CC(=O)N1CC[C@H](n2nc(C#Cc3cc4ncn(C5CC5)c4cc3F)c3c(N)ncnc32)C1 [Example 146, (S)-1-(3-(4-Amino-3-((1-cyclopropyl-6-fluoro-1H-benzo[d]imidazol-5-yl)ethynyl)-1H-pyrazolo[3,4-d]pyrimidin-1-yl)pyrrolidin-1-yl)prop-2-en-1-one]
16 | ≤ 100 | – | C=CC(=O)N1CC[C@H](n2nc(C#Cc3cc4ncn(C)c4c(F)c3F)c3c(N)nccc32)C1 [Example 156, 1-[(3S)-3-{4-Amino-3-[2-(6,7-difluoro-1-methyl-1,3-benzodiazol-5-yl)ethynyl]pyrazolo[4,3-c]pyridin-1-yl}pyrrolidin-1-yl]prop-2-en-1-one]
17 | ≤ 100 | – | C=CC(=O)N1C[C@@H](n2nc(C#Cc3cc4ncn(CC)c4c(F)c3Cl)c3c(N)ncnc32)C[C@@H]1COC [Example 128, 1-[(2R,4S)-4-[4-amino-3-[2-(6-chloro-1-ethyl-7-fluoro-1,3-benzodiazol-5-yl)ethynyl]pyrazolo[3,4-d]pyrimidin-1-yl]-2-(methoxymethyl)pyrrolidin-1-yl]prop-2-en-1-one]
18 | ≤ 100 | – | C=CC(=O)N1C[C@@H](n2cc(C#Cc3c(Cl)cc4c(nc(C)n4C)c3F)c3c(N)ncnc32)C[C@@H]1COC [Example 113, 1-((2R,4S)-4-(4-Amino-5-((6-chloro-4-fluoro-1,2-dimethyl-1H-benzo[d]imidazol-5-yl)ethynyl)-7H-pyrrolo[2,3-d]pyrimidin-7-yl)-2-(methoxymethyl)pyrrolidin-1-yl)prop-2-en-1-one]
19 | ≤ 100 | – | C=CC(=O)N1C[C@@H](n2nc(C#Cc3cc4ncn(CC)c4cc3Cl)c3c(N)ncnc32)C[C@@H]1COC [Example 92, 1-[(2R,4S)-4-[4-Amino-3-[2-(6-chloro-1-ethyl-1,3-benzodiazol-5-yl)ethynyl]pyrazolo[3,4-d]pyrimidin-1-yl]-2-(methoxymethyl)pyrrolidin-1-yl]prop-2-en-1-one]
20 | ≤ 100 | – | C=CC(=O)N1CC[C@H](n2nc(C#Cc3cc4ncn(C5CC5)c4cc3F)c3c(N)nccc32)C1 [Example 149, 1-[(3S)-3-{4-Amino-3-[2-(1-cyclopropyl-6-fluoro-1,3-benzodiazol-5-yl)ethynyl]pyrazolo[4,3-c]pyridin-1-yl}pyrrolidin-1-yl]prop-2-en-1-one]
21 | ≤ 100 | – | C=CC(=O)N1CC[C@H](n2cc(C#Cc3cc4ncn(C)c4cc3F)c3c(N)ncnc32)C1 [Example 142, (S)-1-(3-(4-Amino-5-((6-fluoro-1-methyl-1H-benzo[d]imidazol-5-yl)ethynyl)-7H-pyrrolo[2,3-d]pyrimidin-7-yl)pyrrolidin-1-yl)prop-2-en-1-one]
22 | ≤ 100 | – | C=CC(=O)N1C[C@@H](n2nc(C#Cc3ccc4c(c3)nc(C(F)(F)F)n4C)c3c(N)ncnc32)C[C@@H]1COC [Example 46, 1-((2R,4S)-4-(4-amino-3-((1-methyl-2-(trifluoromethyl)-1H-benzo[d]imidazol-5-yl)ethynyl)-1H-pyrazolo[3,4-d]pyrimidin-1-yl)-2-(methoxymethyl)pyrrolidin-1-yl)prop-2-en-1-one]
23 | ≤ 100 | – | C=CC(=O)N1C[C@@H](n2nc(C#Cc3cc4ncn(C)c4cc3Cl)c3c(N)nccc32)C[C@@H]1C [Example 167, 1-((2S,4S)-4-(4-amino-3-((6-chloro-1-methyl-1H-benzo[d]imidazol-5-yl)ethynyl)-1H-pyrazolo[4,3-c]pyridin-1-yl)-2-methylpyrrolidin-1-yl)prop-2-en-1-one]
24 | – | > 500 | C=CC(=O)N1CC[C@H](c2nc(C#Cc3cc4ncn(C5CC5)c4cc3F)c3c(N)ncnn23)C1 [Example 200, (S)-1-(3-(4-Amino-5-((1-cyclopropyl-6-fluoro-1H-benzo[d]imidazol-5-yl)ethynyl)imidazo[5,1-f][1,2,4]triazin-7-yl)pyrrolidin-1-yl)prop-2-en-1-one]
25 | ≤ 100 | – | C=CC(=O)N1C[C@@H](n2nc(C#Cc3cc4nc(C)n(C(F)F)c4cc3Cl)c3c(N)nccc32)C[C@@H]1COC [Example 130, 1-[(2R,4S)-4-(4-Amino-3-{2-[6-chloro-1-(difluoromethyl)-2-methyl-1,3-benzodiazol-5-yl]ethynyl}pyrazolo[4,3-c]pyridin-1-yl)-2-(methoxymethyl)pyrrolidin-1-yl]prop-2-en-1-one]

From patent US20230374015A1, “INHIBITORS OF FIBROBLAST GROWTH FACTOR RECEPTOR KINASES” (Kinnate Biopharma Inc., priority 2020, published 2023)
